Measured values published in patent US20250282749A1 (Tango Therapeutics, Inc., priority 2022, published 2025).

Legend:
Type in all cases: cell-based
[1] = test system: PRMT5 (SDMA) in HAP1 MTAP-deleted cell line; assay: SDMA in-cell western assay, HAP1 MTAP-deleted cell line; conditions: for IC50 / IC90: Homo sapiens, SDMA in-cell western, HAP1 MTAP-deleted (MTAP-null) cell line; for Hap1 MTAP intact/deleted ratio: ratio of SDMA in-cell western IC50 in HAP1 MTAP-intact to IC50 in HAP1 MTAP-deleted cell line
From the text: (§1) HAP1 MTAP-intact is a cell line in which endogenous levels of MTAP are expressed, and HAP1 MTAP-deleted is an MTAP-null cell line.

[2] = test system: PRMT5 (SDMA) in HAP1 MTAP-intact cell line; assay: SDMA in-cell western assay, HAP1 MTAP-intact cell line; conditions: Homo sapiens, HAP1 MTAP-intact cell line (endogenous MTAP), read-out: Hap 1 MTAP intact IC50
From the text: as §1

[3] = test system: HAP1 MTAP-deleted cell line; assay: viability assay for the MTAP-deleted cell line; conditions: Homo sapiens

| IC50 [1] [nM] | IC90 [1] [nM] | IC50 [2] [nM] | SMILES | Hap1 MTAP intact/deleted ratio [1] | IC50 [3] [nM] |
| --- | --- | --- | --- | --- | --- |
| < 5 | < 75 | > 50 | C[C@@H]1CN(C(=O)C(=O)Nc2cncc3cn[nH]c23)[C@@H](c2ccccc2)CN1CC(C)(C)C [Compound 44, 2-oxo-N-(1H-pyrazolo[4,3-c]pyridin-7-yl)-2-[(2S,5R)-4-(2,2-dimethylpropyl)-5-methyl-2-phenyl-piperazin-1-yl]acetamide] | A (an IC50 ratio greater than or equal to 30 fold) | 100 to 1000 |
| < 5 | < 75 | 5 to 50 | C[C@@H]1CN(C(=O)C(=O)Nc2cncc3cn[nH]c23)[C@@H](c2ccccc2)CN1C(=O)C(C)(C)C [Compound 156, 2-((2S,5R)-5-methyl-2-phenyl-4-pivaloylpiperazin-1-yl)-2-oxo-N-(1H-pyrazolo[4,3-c]pyridin-7-yl)acetamide] | C (an IC50 ratio of less than 15 fold) | < 100 |
| < 5 | > 125 | > 50 | CCc1cc(NC(=O)C(=O)N2C[C@@H](C)N(C(=O)C(C)C)C[C@@H]2c2ccc(F)c(Cl)c2)cnc1N [Compound 87, N-(6-amino-5-ethylpyridin-3-yl)-2-((2S,5R)-2-(3-chloro-4-fluorophenyl)-4-isobutyryl-5-methylpiperazin-1-yl)-2-oxoacetamide] | A (an IC50 ratio greater than or equal to 30 fold) | < 100 |
| 5 to 50 | < 75 | 5 to 50 | C[C@@H]1CN(C(=O)C(=O)Nc2cnc(N)c(C3COC3)c2)[C@@H](c2ccccc2)CN1C(=O)C(C)(C)C [Compound 127, N-(6-amino-5-(oxetan-3-yl)pyridin-3-yl)-2-((2S,5R)-5-methyl-2-phenyl-4-pivaloylpiperazin-1-yl)-2-oxoacetamide] | C (an IC50 ratio of less than 15 fold) | < 100 |
| 5 to 50 | 75 to 125 | > 50 | C[C@@H]1CN(C(=O)C(=O)Nc2cnc(N)c3c2cnn3C)[C@@H](c2ccccc2)CN1C [Compound 164, N-(7-Amino-1-methyl-pyrazolo[3,4-c]pyridin-4-yl)-2-oxo-2-[(2S,5R)-4,5-dimethyl-2-phenyl-piperazin-1-yl]acetamide] | A (an IC50 ratio greater than or equal to 30 fold) | < 100 |
| 5 to 50 | > 125 | > 50 | Cc1cc(NC(=O)C(=O)N2C[C@@H](C)N(C(=O)C3(C(F)(F)F)CC3)C[C@@H]2c2cccc(C(F)(F)F)c2)cnc1N [Compound 137, N-(6-amino-5-methylpyridin-3-yl)-2-((2S,5R)-5-methyl-4-(1-(trifluoromethyl)cyclopropanecarbonyl)-2-(3-(trifluoromethyl)phenyl)piperazin-1-yl)-2-oxoacetamide] | B (an IC50 ratio greater than or equal to 15 fold but lower than 30 fold) | < 100 |
| < 5 | – | 5 to 50 | C[C@@H]1CN(C(=O)C(=O)Nc2cnc(N)c3cn[nH]c23)[C@@H](c2ccccc2)CN1C1CC1 (racemic) [Compound 170, N-(4-Amino-1H-pyrazolo[4,3-c]pyridin-7-yl)-2-oxo-2-[rac-(2S,5R)-4-cyclopropyl-5-methyl-2-phenyl-piperazin-1-yl]acetamide] | C (an IC50 ratio of less than 15 fold) | < 100 |
| 5 to 50 | 75 to 125 | > 50 | COc1ncc(NC(=O)C(=O)N2C[C@@H](C)N(C(=O)C(C)C)C[C@@H]2c2ccc(F)cc2)cc1C(N)=O [Compound 83, 5-[[2-[(2S,5R)-2-(4-fluorophenyl)-5-methyl-4-(2-methylpropanoyl)piperazin-1-yl]-2-oxo-acetyl]amino]-2-methoxy-pyridine-3-carboxamide] | A (an IC50 ratio greater than or equal to 30 fold) | 100 to 1000 |

Second part, the compound before the results:

| SMILES | IC50 [1] [nM] | IC90 [1] [nM] | IC50 [2] [nM] | Hap1 MTAP intact/deleted ratio [1] | IC50 [3] [nM] |
| --- | --- | --- | --- | --- | --- |
| Cc1cc(NC(=O)C(=O)N2C[C@H](C)N(CC(C)C)C[C@H]2c2ccc(F)cc2)cnc1N [Compound 80, N-(6-amino-5-methyl-3-pyridyl)-2-[(2R,5S)-2-(4-fluorophenyl)-4-isobutyl-5-methyl-piperazin-1-yl]-2-oxo-acetamide] | 5 to 50 | > 125 | > 50 | C (an IC50 ratio of less than 15 fold) | 100 to 1000 |
| Cc1cc(NC(=O)C(=O)N2C[C@H](C)N(C(=O)C(C)C)C[C@H]2c2ccc3scnc3c2)cnc1N (single isomer, unassigned) [Compound 45] | > 50 | > 125 | > 50 | C (an IC50 ratio of less than 15 fold) | > 1000 |
| Cc1cc(NC(=O)C(=O)N2C[C@@H](C)N(C(=O)C(C)(C)C)C[C@@H]2c2cccc(N3CCN(C)CC3)c2)cnc1N [Compound 7, N-(6-amino-5-methylpyridin-3-yl)-2-((2S,5R)-5-methyl-2-(3-(4-methylpiperazin-1-yl)phenyl)-4-pivaloylpiperazin-1-yl)-2-oxoacetamide] | < 5 | < 75 | < 5 | C (an IC50 ratio of less than 15 fold) | < 100 |
| Cc1cc(NC(=O)C(=O)N2C[C@@H](C)N(C(=O)C(C)C)C[C@@H]2c2ccc(N3CCN(C)CC3)cc2)cnc1N [Compound 11, N-(6-amino-5-methylpyridin-3-yl)-2-((2S,5R)-4-isobutyryl-5-methyl-2-(4-(4-methylpiperazin-1-yl)phenyl)piperazin-1-yl)-2-oxoacetamide] | < 5 | < 75 | 5 to 50 | C (an IC50 ratio of less than 15 fold) | < 100 |
| C[C@@H]1CN(C(=O)C(=O)Nc2cnc(N)c3cn[nH]c23)[C@@H](c2ccccc2)CO1 [Compound 107] | < 5 | < 75 | > 50 | A (an IC50 ratio greater than or equal to 30 fold) | 100 to 1000 |
| CC(C)OC(=O)N1C[C@H](c2ccc(F)cc2)N(C(=O)C(=O)Nc2cnc(N)c(C3CC3)c2)C[C@H]1C (stereo in doubt) [Compound 92, isopropyl 4-(2-((6-amino-5-cyclopropylpyridin-3-yl)amino)-2-oxoacetyl)-5-(4-fluorophenyl)-2-methylpiperazine-1-carboxylate] | > 50 | > 125 | > 50 | C (an IC50 ratio of less than 15 fold) | > 1000 |
| Cc1ccc([C@H]2CN(C(=O)C3(C(F)(F)F)CC3)[C@H](C)CN2C(=O)C(=O)Nc2cnc(N)c(C)c2)cc1 [Compound 128, N-(6-amino-5-methylpyridin-3-yl)-2-((2S,5R)-5-methyl-2-(p-tolyl)-4-(1-(trifluoromethyl)cyclopropanecarbonyl)piperazin-1-yl)-2-oxoacetamide] | 5 to 50 | 75 to 125 | > 50 | B (an IC50 ratio greater than or equal to 15 fold but lower than 30 fold) | < 100 |
| Cc1cccc([C@H]2CN(C(=O)C3(C(F)(F)F)CC3)[C@H](C)CN2C(=O)C(=O)Nc2cnc(N)c(C)c2)c1 [Compound 30, N-(6-amino-5-methylpyridin-3-yl)-2-((2S,5R)-5-methyl-2-(m-tolyl)-4-(1-(trifluoromethyl)cyclopropanecarbonyl)piperazin-1-yl)-2-oxoacetamide] | 5 to 50 | 75 to 125 | > 50 | C (an IC50 ratio of less than 15 fold) | < 100 |
| C[C@@H]1CN(C(=O)C(=O)Nc2cnc(N)c3cn[nH]c23)[C@@H](c2ccc(F)cc2)CN1C(=O)C(C)(C)C [Compound 46] | < 5 | < 75 | 5 to 50 | C (an IC50 ratio of less than 15 fold) | < 100 |
| CCc1cc(NC(=O)C(=O)N2CCN(C(=O)C3(C(F)(F)F)CC3)[C@@H](C)[C@@H]2c2ccc(F)cc2)cnc1N [Compound 1] | 5 to 50 | 75 to 125 | > 50 | A (an IC50 ratio greater than or equal to 30 fold) | < 100 |
| Cc1cccc([C@H]2CN(C(=O)C3(C)CC3)[C@H](C)CN2C(=O)C(=O)Nc2cnc(N)c(C)c2)c1 [Compound 40, N-(6-amino-5-methylpyridin-3-yl)-2-((2S,5R)-5-methyl-4-(1-methylcyclopropanecarbonyl)-2-(m-tolyl)piperazin-1-yl)-2-oxoacetamide] | 5 to 50 | > 125 | > 50 | C (an IC50 ratio of less than 15 fold) | < 100 |
| CC(C)C(=O)N1C[C@H](c2ccccc2)N(C(=O)C(=O)Nc2cnc(N)c(C3CC3)c2)C[C@H]1C [Compound 98, N-(6-amino-5-cyclopropylpyridin-3-yl)-2-((2S,5R)-4-isobutyryl-5-methyl-2-phenylpiperazin-1-yl)-2-oxoacetamide] | 5 to 50 | 75 to 125 | > 50 | C (an IC50 ratio of less than 15 fold) | < 100 |
| CC(C)CN1C[C@@H](c2ccc(F)cc2)N(C(=O)C(=O)Nc2cnc(N)c(C3CC3)c2)C[C@H]1C (single isomer, unassigned) [Compound 84] | 5 to 50 | < 75 | > 50 | A (an IC50 ratio greater than or equal to 30 fold) | < 100 |
